# Publication PMC5451387, “Structural insights into the elevator-like mechanism of the sodium/citrate symporter CitS” (Scientific Reports, 2017)
# Biological target: T1, KpCitS (Klebsiella pneumoniae, UniProt P31602)
# T1 construct: gene citS; homodimer; TM7-TM8 loop not modelled
# T1 sequence (P31602 1-446): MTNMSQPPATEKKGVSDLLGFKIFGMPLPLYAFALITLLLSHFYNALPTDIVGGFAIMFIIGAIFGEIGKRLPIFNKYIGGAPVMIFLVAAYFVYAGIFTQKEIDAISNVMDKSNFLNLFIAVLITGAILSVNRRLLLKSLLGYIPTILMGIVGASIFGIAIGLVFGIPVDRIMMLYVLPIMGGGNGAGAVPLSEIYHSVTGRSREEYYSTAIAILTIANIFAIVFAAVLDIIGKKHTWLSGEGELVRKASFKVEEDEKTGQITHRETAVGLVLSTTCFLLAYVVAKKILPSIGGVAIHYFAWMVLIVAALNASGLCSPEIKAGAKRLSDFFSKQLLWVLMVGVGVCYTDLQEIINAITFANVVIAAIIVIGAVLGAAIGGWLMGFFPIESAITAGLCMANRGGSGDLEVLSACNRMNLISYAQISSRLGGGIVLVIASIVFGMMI
# Assay: X-ray crystal structures, […]-4.[…] A
# Type: binding
# Settings: sodium-containing buffer; bound at the transport-domain site in outward-facing and asymmetric forms; one citrate per protomer
smiles,measurement,value
O=C(O)CC(O)(CC(=O)O)C(=O)O [citrate],"X-ray crystal structures, 3.5-4.0 A",Each KpCitS protomer binds one molecule of citrate in the outward-facing and asymmetric conformations
